Reference: patent US7442713B2, “2-thio-substituted imidazole derivatives and their use in pharmaceutics” (Merckle GmbH, priority 2002, dated 2008)

Key:
TNFα = test: In vitro test of cytokine release, LPS-stimulated human whole blood / PBMCs: TNFα; assay type: cell-based; conditions: LPS stimulation, ELISA; for IC50: Homo sapiens, PBMC, read-out: Cytokines IC50 TNF α
Description: (§1) The compounds or compositions according to the invention can be administered to mammals (man or animal) in a dose of from about 0.5 mg to 100 mg per kg of body weight per day. They may be administered in one individual dose or in a plurality of doses. The activity spectrum of the compounds as inhibitors of cytokine release was examined using the test systems below, as described by C. Donat and S. Laufer in Arch. Pharm. Pharm. Med. Chem. 333, Suppl. 1, 1-40, 2000.
(§2) In vitro Test with Human Whole Blood
(§3) The test substance is added to samples of human potassium-EDTA whole blood (of 400 μl each) and the samples are preincubated in a CO2 incubator (5% CO2; 95% moisture-saturated air) at 37° C. for 15 min. The samples are then stimulated with 1 μg/ml of LPS (E. coli 026:B6) at 37° C. in a CO2 incubator (5% CO2; 95% moisture-saturated air) for 4 hours. The reaction is stopped by placing the samples on ice, adding DPBS buffer and then centrifuging at 1000*g for 15 min. The amount of IL-1β and TNFα in the plasma supernatant is then determined by ELISA.
(§4) 1) The mononuclear cells (PBMCs) from human potassium-EDTA whole blood, diluted 1:3, are isolated by density gradient centrifugation (Histopaque®-1.077). The cells are washed twice with DPBS buffer, resuspended in macrophage SFM medium and adjusted to a cell count of 1*10^6 cells/ml.
(§5) The resulting PBMCs suspension (samples of in each case 390 μl) and the test substance are preincubated at 37° C. in a CO2 incubator (5% CO2; 95% moisture-saturated air) for 15 min. The samples are then stimulated with in each case […] of LPS (E. coli 026:B6) at 37° C. in a CO2 incubator (5% CO2; 95% moisture-saturated air) for 4 hours. The reaction is stopped by placing the samples on ice, adding DPBS buffer and then centrifuging at 15 880*g for 12 min. The amount of IL-1β and TNFα in the plasma supernatant is then determined by ELISA.

activated p38α = activated p38α (Homo sapiens, UniProt Q16539); test: Kinase assay (p38α, ATF2 substrate, ELISA read-out); assay type: biochemical; conditions: Table 1; for IC50: 100 μM ATP, 10 ng activated p38α, read-out: Kinase assay IC50
Chain of activated p38α (Q16539 whole entry): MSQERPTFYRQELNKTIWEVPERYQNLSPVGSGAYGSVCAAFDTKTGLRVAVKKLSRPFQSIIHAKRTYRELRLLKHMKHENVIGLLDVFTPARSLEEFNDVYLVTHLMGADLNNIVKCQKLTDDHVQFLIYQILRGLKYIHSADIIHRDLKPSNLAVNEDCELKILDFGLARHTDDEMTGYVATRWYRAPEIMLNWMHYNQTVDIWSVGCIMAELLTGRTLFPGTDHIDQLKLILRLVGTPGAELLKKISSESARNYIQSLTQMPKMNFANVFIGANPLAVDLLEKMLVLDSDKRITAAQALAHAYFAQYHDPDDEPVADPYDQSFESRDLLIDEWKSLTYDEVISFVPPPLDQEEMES
Description: At 37° C., microtiter plates were coated with 50 μl of ATF2 solution ([…]) for one hour. The plates were washed three times with water, and 50 μl of kinase mixture (50 mM tris-HCl, 10 mM MgCl2, 10 mM β-glycerol phosphate, 10 μg/ml BSA, 1 mM DTT, 100 μM ATP, 100 μM Na3VO4, 10 ng of activated p38α) with or without inhibitor were then added into the wells, and the plates were incubated at 37° C. for 1 hour. The plates were washed three times and then incubated at 37° C. with phosphorus-ATF-2 antibodies for one hour. Once more, the plates were washed three times, and goat-anti-rabbit IgG labeled with alkaline phosphatase was then added at 37° C. for one hour (to immobilize antibody-phosphorylated protein-substrate complex). After washing three times, the alkaline phosphatase-substrate solution (3 mM 4-NPP, 50 mM NaHCO3, 50 mM MgCl2, 100 μl/well) was added at 37° C. for 1.5 hours. The formation of 4-nitrophenolate was measured at 405 nm using a microtiter plate reader. The IC50 values were calculated.

IL-1β = test: In vitro test of cytokine release, LPS-stimulated human whole blood / PBMCs: IL-1β; assay type: cell-based; conditions: PBMC, LPS stimulation, ELISA, read-out: Cytokines IC50 IL-1β
Description: as §1, §2, §3, §4, §5

What does the source list for `COC(=O)CSc1nc(-c2ccc(F)cc2)c(-c2ccncc2)[nH]1` [Example 25c, Methyl 5-(4-fluorophenyl)-4-(4-pyridinyl)imidazole-2-thio-2-acetate]?
IC50 (TNFα): 2100 nM; IC50 (activated p38α): 750 nM; IC50 (IL-1β): 320 nM

Which results are given for `CN(C)C(=O)CSc1nc(-c2ccc(F)cc2)c(-c2ccncc2)n1C` [Example 27, 1-[4-(4-Fluorophenyl)-1-methyl-5-pyridin-4-yl-1H-imidazol-2-ylsulfanyl]-N,N-dimethylacetamide]?
IC50 (TNFα): 3000 nM; Kinase assay % at 10^−5 mol/l (activated p38α; at 10^−5 mol/l): 29.0% at10^−5 mol/l; IC50 (IL-1β): 150 nM

With `O=C(O)C(CCO)Sc1nc(-c2ccc(F)cc2)c(-c2ccncc2)[nH]1` (centres unmarked) [Example 24, 5-(4-Fluorophenyl)-4-(4-pyridinyl)imidazole-2-thio-2-butanoic acid-4-ol] as the compound, how does the IC50 (TNFα) read?
The IC50 was 3800 nM.

And the IC50 (IL-1β)?
Its IC50 is 140 nM.

`CCOC(=O)C(Sc1nc(-c2ccc(F)cc2)c(-c2ccncc2)[nH]1)C(=O)OCC` [Example 22, Diethyl 5-(4-fluorophenyl)-4-(4-pyridinyl)imidazole-2-thio-2-malonate] was tested. Which IC50 (TNFα) did it give?
Its IC50 is 360 nM.

What about the IC50 (IL-1β) of the same compound?
The IC50 was 540 nM.

Which results are given for `COC(=O)CCCSc1nc(-c2ccc(F)cc2)c(-c2ccncc2)[nH]1` [Example 25a, Methyl 5-(4-fluorophenyl)-4-(4-pyridinyl)imidazole-2-thio-4-butyrate]?
Cytokines TNF α % at 10^−5 mol/l (TNFα): 38% at10^−5 mol/l; IC50 (IL-1β): 750 nM

How did the IC50 (TNFα) turn out when `O=C1OCCC1Sc1nc(-c2ccc(F)cc2)c(-c2ccncc2)[nH]1` (centres unmarked) [Example 23, 5-(4-Fluorophenyl)-4-(4-pyridinyl)imidazole-2-thio-3-butyrolactone] was run?
Its IC50 is 3800 nM.

And the IC50 (IL-1β)?
Its IC50 is 190 nM.

`OCC(O)CSc1nc(-c2ccc(F)cc2)c(-c2ccncc2)[nH]1` (centres unmarked) [Example 21, 5-(4-Fluorophenyl)-4-(4-pyridinyl)imidazole-2-thio-1-propane-2,3-diol] was tested. Which IC50 (TNFα) did it give?
The IC50 was 900 nM.

What about the IC50 (IL-1β) of the same compound?
Its IC50 is 150 nM.

For `CCOC(=O)CSc1nc(-c2ccc(F)cc2)c(-c2ccncc2)[nH]1` [Example 25e, Ethyl 5-(4-fluorophenyl)-4-(4-pyridinyl)imidazole-2-thio-2-acetate], which IC50 (TNFα) is on record?
The IC50 was 9500 nM.

What about the IC50 (activated p38α) of the same compound?
Its IC50 is 975 nM.

What about the IC50 (IL-1β) of the same compound?
Its IC50 is 700 nM.

With `COC(=O)/C=C/CSc1nc(-c2ccc(F)cc2)c(-c2ccncc2)[nH]1` [Example 25b, Methyl 5-(4-fluorophenyl)-4-(4-pyridinyl)imidazole-2-thio-4-crotonate] as the compound, how does the IC50 (TNFα) read?
The IC50 was 1100 nM.

What about the IC50 (IL-1β) of the same compound?
Its IC50 is 650 nM.

For `COC(=O)CCCCSc1nc(-c2ccc(F)cc2)c(-c2ccncc2)[nH]1` [Example 25, Methyl 5-(4-fluorophenyl)-4-(4-pyridinyl)imidazole-2-thio-5-valerate], which “Cytokines TNF α % at 10^−5 mol/l” value (TNFα) is on record?
Its value is 28% at10^−5 mol/l.

What about the IC50 (IL-1β) of the same compound?
The IC50 was 1450 nM.
